Columns and labels:
[1] = target: T1, recombinant human GAA (Myozyme®) (Homo sapiens, UniProt P10253); experiment: SYPRO Orange thermal stability assay (heat-induced denaturation); assay type: physicochemical; conditions: pH 7.4; 100 μM 1-DNJ-HCl; vs Myozyme® alone
T1 construct: purchased Genzyme Corp
Description: The thermal stability assay utilizes heat to induce protein denaturation, which is monitored using a SYPRO Orange dye that fluoresces upon binding to hydrophobic amino acids (which are not exposed in a folded protein).
FIG. 5 depicts the results of a thermal stability assay that utilizes heat to induce protein denaturation, which is monitored using a SYPRO Orange dye that fluoresces upon binding to hydrophobic amino acids (which are not exposed in a folded protein).
Denaturation is monitored using a SYPRO Orange dye that fluoresces upon binding to hydrophobic amino acids (which are not exposed in a folded protein).
The thermal stability was performed at pH 7.4 for two formulations, which corresponds to the pH of the ER.

[2] = Circulating half-life and quadriceps uptake of Myozyme® in rats, tail vein (Example 11); assay type: in vivo, Sprague-Dawley rats; conditions: 30 mg/kg DNJ with 10 mg/kg Myozyme® via tail vein
Experimental: Sprague-Dawley rats were administered 10 mg/kg Myozyme® or 30 mg/kg DNJ mixed with 10 mg/kg Myozyme® via tail vein. GAA activity was measured in plasma and quadriceps tissue. Baseline GAA activity in quadriceps was subtracted (˜16 nmol/mg protein/hr) from the measured GAA following GAA or DNJ and GAA administration.

[3] = target: T1, recombinant human GAA (Myozyme®); experiment: SYPRO Orange protein folding monitored over 24 hours at 37° C.; assay type: physicochemical; conditions: 100 μM 1-DNJ-HCl, plasma pH
Experimental: FIG. 2B depicts a parallel SYPRO Orange thermal stability experiment to determine if the loss of enzyme activity shown in FIG. 2A, particularly the loss of Myozyme® activity at ER pH (7.4), correlates with protein unfolding and denaturation.
In order to determine if loss of initial enzyme activity is correlated to failure to maintain a proper conformation, a SYPRO Orange thermal stability experiment was performed on the samples above as generally described in Example 1. […] Based on this experiment, the % of GAA folded was estimated and plotted in FIG. 2B.

[4] = Circulating rhGAA after subcutaneous Myozyme® with or without DNJ (FIG. 14); assay type: in vivo; conditions: DNJ co-formulated with 20 mg/kg Myozyme® vs 20 mg/kg Myozyme® without DNJ
[5] = target: T1, recombinant human GAA (Myozyme®); experiment: Residual GAA enzyme activity in buffer at 37° C. (4-MU-α-glucose); assay type: biochemical; conditions: 50 μM 1-DNJ, plasma pH (7.4), 24 hours
Experimental: GAA activity was evaluated to assess the ability of an ASSC of GAA to prolong the activity of the rhGAA over time. Myozyme® (45 nM) was incubated in pH 7.4 or pH 5.2 buffer with or without 50 μM 1-DNJ at 37° C. over 24 hours. Samples were assayed for GAA enzyme activity using 4-MU-α-glucose at 0, 3, 6 and 24 hours and the residual GAA activity was expressed as % of initial activity.
Residual GAA activity was determined for four formulations:
Activity was measured, based on the % of initial activity (t=0) over 24 hours. Samples were assayed for GAA enzyme activity based on the hydrolysis of the fluorogenic substrate 4-MU-α-glucose at 0, 3, 6 and 24 hours. The GAA activity was expressed as % of initial activity, i.e. residual activity.

[6] = Aggregation of 25 mg/mL Myozyme® (Example 10); assay type: physicochemical; conditions: 1 mM DNJ with 25 mg/mL Myozyme®; pH 7.4; 37° C.; 4 weeks; listed as DNJ
Experimental: Aggregation was assessed after a 4 week incubation period.
A liquid formulation comprising DNJ and GAA was prepared by dissolving DNJ in water to achieve a concentration of 10 mM DNJ. GAA was reconstituted in 1.8 ml water, and dialyzed overnight in phosphate buffered-saline (pH 7.4). […] of DNJ (10 mM) was then be added to 400 microliters of GAA, such that the GAA was at a concentration of 25 mg/ml.
25 mg/mL Myozyme® was incubated with or without 1 mM DNJ in phosphate-buffered saline at pH 7.4. Aggregation of Myozyme® was assessed after incubation for 4 weeks at 37° C.

stability of Myozyme® (heat required to denature) on addition of the ASSC [1]: significantly increased | tissue uptake of Myozyme® in quadriceps [2]: increased | aggregation of Myozyme® [6]: reduces aggregation
Compound: OC[C@H]1NC[C@H](O)[C@@H](O)[C@@H]1O [1-DNJ, 1-deoxynojirimycin]
effect on GAA denaturation and loss of enzyme activity [3]: can prevent GAA denaturation and loss of enzyme activity | circulating levels of rhGAA [4]: increased the circulating levels of rhGAA | effect on loss of GAA enzyme activity [5]: ameliorates the loss of GAA enzyme activity

Reference: US12419937B2, “High concentration alpha-glucosidase compositions for the treatment of Pompe disease” (Amicus Therapeutics, Inc., priority 2012, dated 2025)
